# Measurements taken from US4183931A, “2-Ketoalkyl-4(3H)-quinazolinones” (Research Corporation, priority 1977, dated 1980).
# Like-named read-outs stand apart in the source and are kept apart here.
# What was measured:
# [1] = NINCDS Subcutaneous Pentylenetetrazol (Metrazol) Seizure Threshold Test (scMet); assay type: in vivo, mice; details: Mus musculus, sc, read-out: scMet: dosage level that elicited protection
# Experimental: 1. Neurological Activity Tests. […] Compounds were evaluated for anticonvulsant activity in two seizure models, the maximal electroshock seizure (MES) test and the subcutaneous pentylenetetrazol (Metrazol) seizure threshold (scMet) test.
# Subcutaneous Pentylenetetrazol (Metrazol) Seizure Threshold Test (scMet) produces threshold (clonic) seizures. Pentylenetetrazol is administered subcutaneously as a threshold 0.5% solution (in 0.9% sodium chloride) in a loose fold of skin on the back of the neck in a dose of 85 mg/kg. […] Metrazol is given 10 minutes before the beginning of the test to allow for the delay in onset of Metrazol action. The animal is observed for 30 minutes. Failure to observe even a threshold seizure (a single episode of clonic spasms at least 5 seconds in duration) is defined as protection and indicates anticonvulsant activity in the test compound. These two methods of seizure provocation reliably elicit well-characterizied seizure phenomena.
# The ability of a compound to prevent maximal electroshock seizures is believed to correlate with its ability to prevent the spread of seizure discharge through neural tissue. Activity against maximal electroshock seizures is thought to indicate potential efficacy in the treatment of major motor (grand mal) seizures. […] Selective action in the test is believed to indicate potential efficacy against absence (petit mal) seizures.
# As described earlier, the MES, scMet and Rotorod tests were performed one-half hour and four hours after administration of each compound.
# In the Secondary Evaluation, median effective doses (ED50) are determined in the MES, scMet and Rotorod assays using the procedures defined in Pharmacology, 95, 99-113 (1949).
# Separate groups of animals are used for each time period. The times of peak toxic and anticonvulsant effect are taken from the resulting graph of percent of animals responding vs. time, and the determinations of median effective doses are performed at those times.
# [2] = Neuropharmacological Profile (NPP): general CNS observational screen (depression, righting reflex, ataxia); details: for Depression: at 300 mg/kg
# Experimental: Representative compounds according to the present invention were tested for central nervous system activity by Pharmakon Laboratories of Scranton, Pennsylvania. The battery of general observational procedures used is referred to herein as a Neuropharmacological Profile (NPP). Additionally, representative compounds were tested in the Anticonvulsant Screening Project of the National Institutes of Neurological and Communicative Disorders and Stroke (NINCDS) at the University of Utah under the direction of Dr. Ewart A. Swinyard.
# (§1) The procedures for the determination of a neuropharmacological profile involved white male mice of the Carworth Farm Strain CF-1 weighing 18 to 22 grams. […] Intraperitoneal injections were administered in logarithmic progression and sequentially. The dose levels employed routinely were 10, 30, 100 and 300 mg/kg, using four male mice at each dose level. Since this test was conducted in a sequential manner, the first does administered was at 300 mg/kg. […] Approximately thirty-eight signs and symptoms of pharmacological activity can be identified.
# (§2) The animals were observed continously for one hour and, if no signs of pharmacological or toxicological activity were present at the end of the first hour, they were intermittently checked for activity every fifteen minutes thereafter for two consecutive hours. […] The observation period began immediately following the injection and the animals were then continuously observed for three hours and intermittently checked thereafter for forty-eight hours. The animals were observed and signs and symptoms of pharmacological activity were recorded continuously until no further symptoms developed and until the symptoms that appeared were no longer present. […] In such instances, the animals were observed beyond this period until they returned to normal. Routinely, the number of animals alive at the end of the forty-eight hour observation period was recorded and the LD50 estimated.
# The animals are free to move about for evaluation of spatial orientation, alertness and spontaneous motor activity.
# (§3) Since this is a general CNS screening procedure, only peak effects were recorded. Certain measures of behavior and neurological deficit were scored in terms of intensity of effect, while most others were determined on an all or none basis. Thus, in scoring measures which were normally present, e.g., spontaneous activity and skin color, an increase in score from 4 to 8 was used to denote stimulation or enhancement of skin color, whereas a decrease in score from 4 to 0 indicated depression or cyanosis. For scoring measures normally absent, e.g., depression, righting reflex and ataxia, activity was reflected as an increase in score from 0 to 8. The 0 to 8 scale was rounded off so that the actual ratings are only 0, 2, 4, 6 and 8. The compounds were also evaluated for anticonvulsant activity by using the maximal electroshock seizure (MES) test. In the MES study, four mice were dosed intraperitoneally at 100 mg/kg and challenged thirty minutes later with 50 mA, 0.2 second duration of electroshock. A protection ratio (number of mice protected from tonic extension .div. number of mice tested) was then established.
# At the termination of the test, the results were recorded and tabulated.
# (§4) Scores for behavioral symptoms, including depression, righting reflex and ataxia, are the actual numbers reported. Protection against MES is reported as a percentage. Since four animals were involved in this test, the findings are 0% for none protected, 25% for one out of four, etc. […] In order to maintain reasonable uniformity in the reporting of results, each entry corresponds to a dosage level of 100 mg/kg. Any variations from that dosage are indicated.
# [3] = NPP maximal electroshock seizure (MES) protection; assay type: in vivo, white male mice of the Carworth Farm Strain CF-1; details: Mus musculus, ip; for responders at 100 mg/kg: 0.5 h, at 100 mg/kg i.p., four mice, 30 min after dosing
# Experimental: as §1, §3, §4
# [4] = NPP lethality (estimated LD50); details: mouse, in vivo, ip
# Experimental: as §1, §2, §4
# [5] = after 4 hr (value in parentheses)
# [6] = at 30 mg/kg (value in parentheses), i.p., mice, score 0-8
# [7] = at 100 mg/kg, i.p., mice, score 0-8
SMILES,"CNS Depression [2, 6]",responders at 100 mg/kg [3],LD50 at 48 h [4],"CNS Depression [2, 7]",further results
"Cc1ccccc1-n1c(CCc2ccccc2)nc2ccccc2c1=O [CH2 C6 H5, reference compound]",–,–,–,–,"minimal effective dose ([1]; after 0.5 hr): 300 mg/kg; minimal effective dose [1, 5]: 300 mg/kg"
"Cc1ccccc1-n1c(CC(=O)C(F)(F)F)nc2ccccc2c1=O [IIIa, 2-(3,3,3-Trifluoroacetonyl)-3-o-tolyl-4(3H)-quinazoline]",4,50%,> 562 mg/kg,–,"Ataxia [2, 7]: 2"
"Cc1ccccc1-n1c(CC(=O)c2ccccn2)nc2ccccc2c1=O [IIIb, 2-[2-Oxo-2-(2-pyridyl)ethyl]-3-o-tolyl-4-(3H)-quinazolinone]",–,0%,> 562 mg/kg,2,minimal effective dose ([1]; after 0.5 hr): 300 mg/kg
"Cc1ccccc1-n1c(CC(=O)c2cccnc2)nc2ccccc2c1=O [IIIc, 2-[2-Oxo-2-(3-pyridyl)ethyl]-3-o-tolyl-4(3H)-quinazolinone]",4,100%,562 mg/kg,6,"Ataxia [2, 7]: 8; minimal effective dose [1, 5]: 300 mg/kg"
"Cc1ccccc1-n1c(CC(=O)C=Cc2ccccc2)nc2ccccc2c1=O [IIIf, 2-(2-Oxo-4-phenylbut-3-enyl)-3-o-tolyl-4(3H)-quinazolinone]",2,25%,> 562 mg/kg,4,–
"Cc1ccccc1-n1c(CC(=O)c2ccccc2)nc2ccccc2c1=O [IIIg, 2-(2-Oxo-2-phenylethyl)-3-o-tolyl-4(3H)-quinazolinone]",4,0%,> 562 mg/kg,4,–
"Cc1ccccc1-n1c(CC(=O)c2ccc(Cl)cc2)nc2ccccc2c1=O [IIIh, 2-[2-Oxo-2-(4-chlorophenyl)ethyl]-3-o-tolyl-4(3H)-quinazolinone]",–,0%,316 mg/kg,0,"Depression ([2]; i.p., mice, score 0-8): 4"
"COc1ccc(C(=O)Cc2nc3ccccc3c(=O)n2-c2ccccc2C)cc1 [IIIi, 2-[2-Oxo-2-(4-methoxyphenyl)ethyl]-3-o-tolyl-4(3H)-quinazolinone]",–,0%,> 562 mg/kg,2,"Depression ([2]; i.p., mice, score 0-8): 4"
"COc1cc(C(=O)Cc2nc3ccccc3c(=O)n2-c2ccccc2C)cc(OC)c1OC [IIIj, 2-[2-Oxo-2-(3,4,5-trimethoxyphenyl)ethyl]-3-o-tolyl-4(3H)-quinazolinone]",–,0%,> 562 mg/kg,2,"Depression ([2]; i.p., mice, score 0-8): 4"
"CCOC(=O)C(=O)Cc1nc2ccccc2c(=O)n1-c1ccccc1C [IIIm, 2-Ethoxallylmethyl-3-o-tolyl-4(3H)-quinazolinone]",–,0%,> 562 mg/kg,4,–
"CC(=O)Cc1nc2ccccc2c(=O)n1-c1ccccc1C [IIIn, 2-Acetonyl-3-o-tolyl-4(3H)-quinazolinone]",4,0%,> 562 mg/kg,8,"behavioral activity compared with methaqualone ([2]; NPP summary): equal to methaqualone in affecting behavioral activity; muscle relaxant properties ([2]; NPP summary): possible muscle relaxant properties not exhibited by methaqualone itself; minimal effective dose [1, 5]: 300 mg/kg"
"O=C(Cc1nc2ccccc2c(=O)n1-c1ccccc1Cl)c1ccccn1 [IVb, 2-[2-Oxo-2-(2-pyridyl)ethyl]-3-o-chlorophenyl-4(3H)-quinazolinone]",–,0%,562 mg/kg,0,"Depression ([2]; i.p., mice, score 0-8): 2"
"O=C(Cc1nc2ccccc2c(=O)n1-c1ccccc1)C(F)(F)F [IVe, 2-(3,3,3-Trifluoroacetonyl)-3-phenyl-4(3H)-quinazolinone]",–,0%,562 mg/kg,2,–
"O=C(Cc1nc2ccccc2c(=O)n1-c1ccccc1)c1ccncc1 [IVh, 2-[2-Oxo-2-(4-pyridyl)ethyl]-3-phenyl-4(3H)-quinazolinone]",–,–,–,–,minimal effective dose ([1]; after 0.5 hr): 100 mg/kg
"Cc1ccc(-n2c(CC(=O)C(F)(F)F)nc3ccccc3c2=O)cc1 [IVi, 2-(3,3,3-Trifluoroacetonyl)-3-p-tolyl-4(3H)-quinazolinone]",–,100%,562 mg/kg,4,"Ataxia [2, 7]: 2"
"Cc1ccc(-n2c(CC(=O)c3cccnc3)nc3ccccc3c2=O)cc1 [IVk, 2-[2-Oxo-2-(3-pyridyl)ethyl]-3-p-tolyl-4(3H)-quinazolinone]",–,0%,562 mg/kg,4,–
"Cc1ccc(-n2c(CC(=O)c3ccncc3)nc3ccccc3c2=O)cc1 [IVl, 2-[2-Oxo-2-(4 pyridyl)ethyl]-3-p-tolyl-4(3H)-quinazolinone]",–,–,–,–,"minimal effective dose [1, 5]: 300 mg/kg"
"Cn1c(CC(=O)c2ccccc2)nc2ccccc2c1=O [IVr, 2-(2-Oxo-2-phenylethyl)-3-methyl-4(3H)-quinazolinone]",–,–,–,–,"minimal effective dose [1, 5]: 300 mg/kg"
"Cn1c(CC(=O)c2cccnc2)nc2ccccc2c1=O [IVs, 2-[2-Oxo-2-(3-pyridyl)ethyl]-3-methyl-4(3H)-quinazolindone]",–,0%,422 mg/kg,4,–
"Cc1ccc(-n2c(C)nc3ccccc3c2=O)cc1 [p-tolyl H, 2-methyl-3-p-tolyl-4(3H)-quinazolinone, reference compound]",4,100%,> 562 mg/kg,8,"Ataxia [2, 7]: 8"
"Cc1nc2ccccc2c(=O)n1-c1ccccc1 [phenyl H, 2-methyl-3-phenyl-4(3H)-quinazolinone, reference compound]",4,–,562 mg/kg,8,"Ataxia [2, 7]: 8; Righting reflex [2, 7]: 8; responders at 30 mg/kg ([3]; conducted at 30 mg/kg i.p.): 0%"
